In one assay the target is αBgt (Bungarus multicinctus, UniProt P60615). The assay can be described thus: biochemical. In kind it is binding.
The next assay has as its target αCtx (Naja kaouthia, UniProt P01391). The assay can be described thus: biochemical. In kind it is binding.

Ends that are not written are not given here.

Sequence of αCtx (P01391 whole entry, looked up): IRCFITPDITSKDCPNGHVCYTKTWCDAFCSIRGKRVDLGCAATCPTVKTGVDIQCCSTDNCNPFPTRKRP
Sequence of αBgt (P60615 22-95 limits assumed): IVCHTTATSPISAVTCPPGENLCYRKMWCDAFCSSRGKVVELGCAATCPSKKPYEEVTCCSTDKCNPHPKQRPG

Broadly, the Kd is the equilibrium constant for the complex coming apart. On to WRYYESSLEPYPD [HAP[L9E]], for which the Kd was found to be 91 ± 33 nM on αBgt and 7000 ± 1000 nM at αCtx.
In the case of WRYYESSLLPYPD [HAP], the Kd is 29 ± 8 nM on αBgt and greater than 10000 nM on αCtx.
